What was measured:
Assay type in all cases: in vivo
[1] = tested on: cotton aphids (Aphis gossypii); experiment: Test method 1: spray on cucumber seedling infested with cotton aphids; settings: 500 ppm; sprayed 10 mL/seedling on cucumber one day after release of about 30 aphids (all stages); after 5 days; 25° C.
Method: Next, an efficacy of the Type 1 crystal of Compound (1) on controlling harmful arthropods is shown by Test examples. The following tests were conducted at 25° C. Test compound is made to a formulation according to a similar method to that described in the Formulation example 1, and thereto is added water containing 0.03 v/v % of Shindain (registered trademark) to prepare a dilution containing a prescribed concentration of the test compound. Cucumber (Cucumis sativus) seedling (on the developmental stage of the second true leaf) is planted in a cup, and approximately 30 cotton aphids (Aphis gossypii) (all stages of life) are released onto the seedling. After one day, the dilutions are sprayed onto the seedling at a ratio of 10 mL/seedling. After 5 days, the number of the surviving insects is examined and the controlling value is calculated by the following equation. […]

[2] = tested on: common cutworms (Spodoptera litura); experiment: Test method 2: sprayed cabbage leaves fed to common cutworms; settings: 120 h, cabbage sprayed 20 mL/seedling, second instar larvae, after 5 days, 25° C., read-out: mortality of insects
Method: (§1) Next, an efficacy of the Type 1 crystal of Compound (1) on controlling harmful arthropods is shown by Test examples. The following tests were conducted at 25° C.
(§2) Test compound is made to a formulation according to a similar method to that described in the Formulation example 1, and thereto is added water containing 0.03 v/v % of Shindain (registered trademark) to prepare a dilution containing a prescribed concentration of the test compound.
(§3) Cabbage (Brassicae oleracea) seedling (on the developmental stage of the second to third true leaf) is planted in a cup, and the dilutions are sprayed onto the seedling at a ratio of 20 mL/seedling. Thereafter, the stem and leaf thereof are cut out and then are placed into a cup that is lined with a filter paper. Five (5) common cutworms (Spodoptera litura) at the second instar larval stage are released into the cup. After 5 days, the number of the surviving insects is counted, and the mortality of insects is calculated by the following equation.

[3] = tested on: diamondback moths (Plutella xylostella); experiment: Test method 3: sprayed cabbage leaves fed to diamondback moths; settings: 120 h, cabbage sprayed 20 mL/seedling, second instar larvae, after 5 days, 25° C., read-out: mortality of insects
Method: as §1, §2
as §3, with “diamondback moths (Plutella xylostella)” for “common cutworms (Spodoptera litura)”

[4] = tested on: common house mosquitos (Culex pipiens pallens); experiment: Test method 4: common house mosquito larvae released into dilution; settings: 24 h, last instar larvae released into dilution, after 1 day, 25° C., read-out: mortality of insects
Method: as §1
Test compound is made to a formulation according to a similar method to that described in the Formulation example 1, and thereto is added water to prepare a dilution containing a prescribed concentration of the test compound.
Into the dilution, 30 common house mosquitos (Culex pipiens pallens) at the last instar larval stage are released, and after 1 day, the state of the common house mosquito larvae is examined, and the mortality of insects is calculated by the following equation.

[5] = tested on: brown planthoppers (Nilaparvata lugens); experiment: Test method 5: sprayed rice seedling with brown planthoppers; settings: 144 h, rice sprayed 10 mL/seedling, third instar larvae, after 6 days, 25° C., read-out: mortality of insects
Method: as §1, §2
Rice (Oryza sativa) seedling (on the developmental stage of the second leaf) is planted in a cup, and the dilutions are sprayed onto the seedling at a ratio of 10 mL/seedling. Thereafter, twenty (20) brown planthoppers (Nilaparvata lugens) at the third instar larval stage are released into the cup. After 6 days, the number of the surviving insects is counted, and the mortality of insects is calculated by the following equation.

[6] = tested on: cotton aphids (Aphis gossypii); experiment: Test method 6: sprayed cucumber seedling, artificial rainfall, then cotton aphids released; settings: 0.5 ppm; cucumber sprayed 10 mL/seedling, dried, artificial rain 10 mm/hr for 1 hour; female adults released after one day; after 5 days; 25° C.
Method: Next, an efficacy of the Type 1 crystal of Compound (1) on controlling harmful arthropods is shown by Test examples. The following tests were conducted at 25° C. Test compound is made to a formulation according to a similar method to that described in the Formulation example 1, and thereto is added water containing 0.02 v/v % of Shindain (registered trademark) to prepare a dilution containing a prescribed concentration of the test compound. Only the second true leaves of Cucumber (Cucumis sativus) seedling (on the developmental stage of the third true leaf) are retained, and the other leaves are cut off, and the dilutions are sprayed onto the seedling at a ratio of 10 mL/seedling. After the dilution, which is treated, is dried, rain is given to the cucumber seedling with an artificial rainfall device at 10 mm/hr for 1 hour. After one day, 10 cotton aphids (Aphis gossypii) female adults are released onto the seedling. After 5 days, the number of the surviving insects is examined and the controlling value is calculated by the following equation. […]

[7] = tested on: Argentine ant (Linepithema humile); experiment: Test method 7: sugar-water filter paper test on Argentine ant workers; settings: 0.2 ppm, 0.7 ml dilution in sugar water on filter paper, after 6 days, 25° C.
Method: as §1
(§4) Test compound is made to a formulation according to a similar method to that described in the Formulation example 1, and thereto is added 1.8 g of sucrose, followed by adding 3% sugar water to prepare a dilution containing a prescribed concentration of the test compound.
(§5) A filter paper having a diameter of 5.5 cm is spread on the bottom of the cup, and then 0.7 ml of the dilutions are added dropwise to the filter paper, and ten (10) Argentine ant (Linepithema humile) workers are released into the cup, and the cup is covered with the lid. After 6 days, the number of the dead and distressed individuals of Argentine ant workers are counted, and the ratio of distressed and dead insects (%) is calculated by the following equation.
(§6) Here the dead individual is one whose behavior has completely stopped, and a distressed individual is one that cannot stand up when placed on its back and also cannot walk.

[8] = tested on: pharaoh ant (Monomorium pharaonis); experiment: Test method 8: sugar-water filter paper test on pharaoh ant workers; settings: 0.05 ppm, 0.7 ml dilution in sugar water on filter paper, after 2 days, 25° C.
Method: as §1, §4
as §5, with “pharaoh” for “Argentine”, “(Monomorium pharaonis)” for “(Linepithema humile)”, “2” for “6”
as §6

[9] = tested on: German cockroach (Blattella germanica); experiment: Test method 9: sugar-water filter paper test on German cockroach male adults; settings: 0.2 ppm, 0.7 ml dilution in sugar water on filter paper, after 5 days, 25° C.
Method: as §1, §4
as §5, with “five (5) German cockroach (Blattella germanica) male adults” for “and ten (10) Argentine ant (Linepithema humile) workers”, “5” for “6”, “German cockroach male adults” for “Argentine ant workers”
as §6

[10] = tested on: common house mosquito (Culex pipiens pallens); experiment: Test method 10: sugar-water filter paper test on common house mosquito female adults; settings: 0.8 ppm, 0.7 ml dilution in sugar water on filter paper, after 2 days, 25° C.
Method: as §1, §4
as §5, with “five (5) common house mosquito (Culex pipiens pallens) female adults” for “and ten (10) Argentine ant (Linepithema humile) workers”, “2” for “6”, “[…] female adults” for “Argentine ant workers”
Here the dead individual is one whose behavior has completely stopped, and a distressed individual is one that cannot fly and also cannot walk.

Structure (SMILES) | controlling value [1] [%] | mortality at 500 ppm [2] [%] | mortality at 500 ppm [3] [%] | mortality at 3.5 ppm [4] [%] | mortality at 500 ppm [5] [%] | controlling value [6] [%] | ratio of distressed and dead insects [7] [%] | ratio of distressed and dead insects [8] [%] | ratio of distressed and dead insects [9] [%] | ratio of distressed and dead insects [10] [%]
CCS(=O)(=O)c1cc(C2CC2)cnc1-c1nc2cc([S+]([O-])C(F)(F)F)ccc2o1 (stereo not drawn) [Type 1 crystal of Compound (1), 2-(5-cyclopropyl-3-(ethylsulfonyl)pyridin-2-yl)-5-((trifluoromethyl)sulfinyl)benzo[d]oxazole] | ≥ 90 | ≥ 80 | ≥ 80 | ≥ 90 | ≥ 90 | 55.7 | 95 | 100 | 100 | 100
CCS(=O)(=O)c1cc(C2CC2)cnc1-c1nc2cc([S+]([O-])C(F)(F)F)ccc2o1 (stereo not drawn) [amorphous of Compound (1), 2-(5-cyclopropyl-3-(ethylsulfonyl)pyridin-2-yl)-5-((trifluoromethyl)sulfinyl)benzo[d]oxazole] |  |  |  |  |  | 32.4 | 30 | 15 | 0 | 20

From patent US20260144259A1, “CRYSTAL OF 2-(5-CYCLOPROPYL-3-(ETHYLSULFONYL)PYRIDIN-2-YL)-5-((TRIFLUOROMETHYL)SULFINYL)BENZO[D]OXAZOLE” (SUMITOMO CHEMICAL COMPANY, LIMITED, priority 2022, published 2026)
